This passage reports IC50 results from patent US9963462B2 (priority 2015, dated 2018).

Assay [1] relates to BH4 production in human peripheral blood mononuclear cells (PBMCs). Nature of the assay: hPBMC assay, inhibition of BH4 production by LC-MS (anti-CD3/anti-CD28 stimulated). The following applies: PBMC, read-out: hPBMC IC50. The assay is classed as cell-based.
In assay [2] the target is SNAP-hSPR (sepiapterin reductase, SPR) (Homo sapiens, UniProt P35270). The assay can be described thus: biochemical. The assay is classed as binding. The following applies: terbium labelled SNAP-hSPR / SSZ labelled SNAP-EGFP; read-out: hTR-FRET IC50.
Chain of SNAP-hSPR (sepiapterin reductase, SPR) (P35270 whole entry): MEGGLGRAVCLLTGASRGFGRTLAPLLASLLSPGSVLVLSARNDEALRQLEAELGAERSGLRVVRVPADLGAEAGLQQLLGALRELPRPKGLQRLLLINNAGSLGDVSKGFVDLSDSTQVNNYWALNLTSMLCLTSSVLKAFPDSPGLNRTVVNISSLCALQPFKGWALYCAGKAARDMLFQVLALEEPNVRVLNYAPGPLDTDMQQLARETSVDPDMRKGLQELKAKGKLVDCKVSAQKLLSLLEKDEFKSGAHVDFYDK

Structures are written as SMILES.

Take `Cc1c(C(=O)N2CC(c3ccc(F)nc3)C2)cnn1-c1nn2cccc2c(=O)[nH]1` [Q-1144]: the IC50 (as a rule, the concentration at which inhibition is half-maximal) was 70 nM in assay [1] and 1 nM in assay [2].
`Cc1c(C(=O)N2CCC(c3nc(C#N)cs3)CC2)cnn1-c1nc2c(c(=O)[nH]1)CCC2` [Q-1104]: the results for the half-inhibitory concentration (IC50) in assay [1] and in assay [2] were 110 nM and 3 nM, respectively.
The corresponding values for `Cc1c(C(=O)N2CCC3(CCCCC3=O)CC2)cnn1-c1nn2cccc2c(=O)[nH]1` [Q-1220] are 22 nM and 1 nM.
Consider `Cc1c(C(=O)N2CCN(S(=O)(=O)Cc3ccccc3)CC2)cnn1-c1nn2cccc2c(=O)[nH]1` [Q-1591], for which the results for the IC50 in assay [1] and in assay [2] were 110 nM and 3 nM, respectively.
Turning to `Cc1c(C(=O)N2CCc3nc(-c4ccccn4)sc3C2)cnn1-c1nn2cccc2c(=O)[nH]1` [Q-1158], the IC50 in assay [1] is 130 nM; in assay [2], 2 nM.
Regarding `CCC(=O)C1CCN(C(=O)c2cnn(-c3nc4c(c(=O)[nH]3)CCC4)c2C)CC1` [Q-1113], the IC50 stood at 16 nM in assay [1] and 1 nM in assay [2].
With `Cc1nn(-c2nn3cccc3c(=O)[nH]2)cc1C(=O)N1CCN(CC(F)(F)F)CC1` [Q-1125], the IC50 in assay [1] is 100 nM; in assay [2], 6 nM.
Regarding `Cc1c(C(=O)N2CCC2c2ccc(F)cn2)cnn1-c1nn2cccc2c(=O)[nH]1` (stereo not drawn) [Q-1301], the IC50 in assay [1] stood at 820 nM; in assay [2], 10 nM.
Take `Cc1c(C(=O)N2C3CCC2CC(C(F)(F)F)C3)cnn1-c1nn2cccc2c(=O)[nH]1` (stereo not drawn) [Q-1122]: the IC50 in assay [1] was 25 nM; in assay [2], 1 nM.
As for `Cc1c(C(=O)N2CCC2c2cncc(F)c2)cnn1-c1nn2cccc2c(=O)[nH]1` (stereo not drawn) [Q-1269], the figures for the IC50 in assay [1] and in assay [2] were 53 nM and 5 nM, respectively.
As to `Cc1c(C(=O)N2CCN(c3nc(-c4ccc(C#N)cc4)cs3)CC2)cnn1-c1nn2cccc2c(=O)[nH]1` [Q-1210], the IC50 in assay [1] worked out at 84 nM; in assay [2] it was 2 nM.
As for `Cc1c(C(=O)N2CCN(c3ncc(-c4ccccc4C(F)(F)F)o3)CC2)cnn1-c1nn2cccc2c(=O)[nH]1` [Q-1171], the IC50 in assay [1] was found to be 140 nM; in assay [2], 10 nM.
Take `Cc1c(C(=O)N2CCN(S(=O)(=O)c3cccc(Cl)c3)CC2)cnn1-c1nn2cccc2c(=O)[nH]1` [Q-1822]: the values for the IC50 in assay [1] and in assay [2] were 120 nM and 1 nM, respectively.
Turning to `Cc1c(C(=O)N2CCc3nc(-c4cccnc4)sc3C2)cnn1-c1nn2cccc2c(=O)[nH]1` [Q-1206], the IC50 in assay [1] came to 70 nM; in assay [2] it was 1 nM.
In the case of `Cc1c(C(=O)N2CCc3nc(C(F)(F)F)sc3C2)cnn1-c1nn2cccc2c(=O)[nH]1` [Q-1078], the IC50 in assay [1] was 36 nM; in assay [2], 5 nM.
`O=C(c1cn(-c2nn3cccc3c(=O)[nH]2)nn1)N1CCN(C2CCC2(F)F)CC1` (stereo not drawn) [Q-1247]: the values for the IC50 in assay [1] and in assay [2] were 150 nM and 2 nM, respectively.
Consider `Cc1c(C(=O)N2CCN(c3nc(C(F)(F)F)co3)CC2)cnn1-c1nn2cccc2c(=O)[nH]1` [Q-1137], for which the values for the IC50 in assay [1] and in assay [2] were 160 nM and 3 nM, respectively.
Take `COCC(C1CCN(C(=O)c2cnn(-c3nn4cccc4c(=O)[nH]3)c2C)CC1)C(F)(F)F` (stereo not drawn) [Q-1198]: the figures for the IC50 in assay [1] and in assay [2] were 17 nM and 1 nM, respectively.
With `Cc1c(C(=O)N2CCN(S(=O)(=O)c3ccc(Cl)nc3)CC2)cnn1-c1nn2cccc2c(=O)[nH]1` [Q-1862], the results for the IC50 in assay [1] and in assay [2] were 250 nM and 2 nM, respectively.
`Cc1c(C(=O)N2CCC(c3nc(-c4ccccc4)co3)CC2)cnn1-c1nc2c(c(=O)[nH]1)CCC2` [Q-1079]: the half-inhibitory concentration (IC50) in assay [1] was 74 nM; in assay [2], 3 nM.
`Cc1nn(-c2nn3cccc3c(=O)[nH]2)cc1C(=O)N1CCN(C2CCC2)CC1` [Q-1241]: the IC50 is 20 nM in assay [1] and 2 nM in assay [2].
In the case of `Cc1c(C(=O)N2CCC3(CC2)CC3C(=O)N2CCC2)cnn1-c1nn2cccc2c(=O)[nH]1` (stereo not drawn) [Q-1088], the IC50 was found to be 290 nM in assay [1] and 4 nM in assay [2].
As for `Cc1c(C(=O)N2CC(S(=O)(=O)c3ccccc3)C2)cnn1-c1nn2cccc2c(=O)[nH]1` [Q-2017], the IC50 is 170 nM in assay [1] and 2 nM in assay [2].
On to `Cc1c(C(=O)N2CC(N3CCC(F)(F)C3)C2)cnn1-c1nc2cc[nH]c2c(=O)[nH]1` [Q-1255], for which the values for the IC50 in assay [1] and in assay [2] were 580 nM and 100 nM, respectively.
The corresponding values for `Cc1c(C(=O)N2CCN(c3nc(-c4cccnc4)cs3)CC2)cnn1-c1nn2cccc2c(=O)[nH]1` [Q-1164] are 37 nM and 1 nM.
The corresponding values for `Cc1c(C(=O)N2CCC(c3nc(C(N)=O)cs3)CC2)cnn1-c1nc2c(c(=O)[nH]1)CCC2` [Q-1091] are 130 nM and 2 nM.
Regarding `Cc1c(C(=O)N2CCC(C(F)(F)F)CC2)c(C(N)=O)nn1-c1nc2c(c(=O)[nH]1)CCC2` [Q-1884, 5-methyl-1-(4-oxo-4,5,6,7-tetrahydro-3H-cyclopenta[d]pyrimidin-2-yl)-4-(4-(trifluoromethyl)piperidine-1-carbonyl)-1H-pyrazole-3-carboxamide], the IC50 in assay [1] is 84 nM; in assay [2], 1 nM.
Consider `Cc1c(C(=O)N2CCN(C3CC3C(F)(F)F)CC2)cnn1-c1nn2cccc2c(=O)[nH]1` (stereo not drawn) [Q-1240], for which the IC50 in assay [1] was 35 nM; in assay [2], 1 nM.
The corresponding values for `Cc1c(C(=O)N2CC3CCCC(C2)C3=CC(F)(F)F)cnn1-c1nn2cccc2c(=O)[nH]1` [Q-1174] are 22 nM and 1 nM.
As to `CCCC(=O)C1CCN(C(=O)c2cnn(-c3nn4cccc4c(=O)[nH]3)c2C)CC1` [Q-1207], the IC50 in assay [1] was 29 nM; in assay [2] it was 1 nM.
For `Cc1c(C(=O)N2CCC(C3(C#N)CCC3)CC2)cnn1-c1nc2c(c(=O)[nH]1)CCC2` [Q-1087], the IC50 in assay [1] was 29 nM; in assay [2], 2 nM.
As for `CCC1(C(F)(F)F)CCN(C(=O)c2cnn(-c3nn4cccc4c(=O)[nH]3)c2C)CC1` [Q-1132], the IC50 in assay [1] was found to be 40 nM; in assay [2], 1 nM.
The corresponding values for `Cc1c(C(=O)N2CCN(c3ncc(-c4cccnc4)o3)CC2)cnn1-c1nn2cccc2c(=O)[nH]1` [Q-1162] are 95 nM and 1 nM.
Turning to `Cc1c(C(=O)N2CCN(S(=O)(=O)c3ccccc3OC(F)(F)F)CC2)cnn1-c1nn2cccc2c(=O)[nH]1` [Q-1861], the IC50 in assay [1] was 98 nM; in assay [2], 1 nM.
On to `Cc1c(C(=O)N2CCC(n3cccc3C#N)CC2)cnn1-c1nn2cccc2c(=O)[nH]1` [Q-1219], for which the IC50 in assay [1] was found to be 79 nM; in assay [2], 1 nM.
With `Cc1c(C(=O)N2CCN(c3nc(-c4ccc(F)nc4)cs3)CC2)cnn1-c1nn2cccc2c(=O)[nH]1` [Q-1180], the half-maximal inhibitory concentration (IC50) in assay [1] came out at 47 nM; in assay [2] it was 2 nM.
As for `Cc1c(C(=O)N2CCCC(F)(F)CC2)cnn1-c1nn2cccc2c(=O)[nH]1` [Q-1119], the IC50 in assay [1] was found to be 370 nM; in assay [2], 2 nM.
As for `Cc1c(C(=O)Nc2c(C(C)(O)C(F)(F)F)cnn2C(C)C)cnn1-c1nn2cccc2c(=O)[nH]1` (stereo not drawn) [Q-1142], the IC50 was determined as 75 nM in assay [1] and 1 nM in assay [2].
Regarding `Cc1c(C(=O)N2CCN(c3nc(-c4ccnc(Cl)c4)cs3)CC2)cnn1-c1nn2cccc2c(=O)[nH]1` [Q-1163], the half-maximal inhibitory concentration (IC50) was 68 nM in assay [1] and 2 nM in assay [2].
As to `Cc1c(C(=O)N2CCCN(C3CC3)CC2)cnn1-c1nn2cccc2c(=O)[nH]1` [Q-1205], the figures for the IC50 in assay [1] and in assay [2] were 35 nM and 3 nM, respectively.
As to `Cc1c(C(=O)N2CCN(c3nc(-c4ccccc4C#N)cs3)CC2)cnn1-c1nn2cccc2c(=O)[nH]1` [Q-1172], the IC50 in assay [1] stood at 180 nM; in assay [2] it was 3 nM.
Consider `C=C(c1cnn(C(C)C)c1NC(=O)c1cnn(-c2nn3cccc3c(=O)[nH]2)c1C)C(F)(F)F` [Q-1143], for which the results for the IC50 in assay [1] and in assay [2] were 310 nM and 3 nM, respectively.
Take `Cc1c(C(=O)N2CCN(S(=O)(=O)c3ccc(F)cc3)CC2)cnn1-c1nn2cccc2c(=O)[nH]1` [Q-1807]: the IC50 in assay [1] is 110 nM; in assay [2], 1 nM.
On to `Cc1c(C(=O)N2CC(c3cccc(F)n3)C2)cnn1-c1nn2cccc2c(=O)[nH]1` [Q-1121], for which the IC50 in assay [1] is 70 nM; in assay [2], 1 nM.
The corresponding values for `Cc1c(C(=O)N2CCN(S(=O)(=O)c3cccc(C#N)c3)CC2)cnn1-c1nn2cccc2c(=O)[nH]1` [Q-1794] are 250 nM and 2 nM.
`Cc1c(C(=O)N2CCN(c3ncc(-c4ccnc(Cl)c4)s3)CC2)cnn1-c1nn2cccc2c(=O)[nH]1` [Q-1236]: the results for the IC50 in assay [1] and in assay [2] were 48 nM and 6 nM, respectively.
The corresponding values for `Cc1c(C(=O)N2CCc3nc(-c4ccc(F)cc4)sc3C2)cnn1-c1nn2cccc2c(=O)[nH]1` [Q-1160] are 110 nM and 3 nM.
In the case of `Cc1c(C(=O)N2CCN(S(=O)(=O)c3ccccc3C#N)CC2)cnn1-c1nn2cccc2c(=O)[nH]1` [Q-1847], the figures for the IC50 in assay [1] and in assay [2] were 64 nM and 1 nM, respectively.
The corresponding values for `Cc1c(C(=O)N2CC3CCC(C2)C3C(F)(F)F)cnn1-c1nn2cccc2c(=O)[nH]1` (stereo not drawn) [Q-1130] are 57 nM and 1 nM.
The corresponding values for `Cc1c(C(=O)N2CCC(CCCF)C2)cnn1-c1nn2cccc2c(=O)[nH]1` (stereo not drawn) [Q-1098] are 210 nM and 1 nM.
In the case of `Cc1c(C(=O)N2CCCN(C(C)C(F)(F)F)CC2)cnn1-c1nn2cccc2c(=O)[nH]1` (stereo not drawn) [Q-1218], the IC50 in assay [1] was found to be 130 nM; in assay [2], 3 nM.
The corresponding values for `Cc1c(C(=O)N2CCN(c3nc(-c4ccc(C(F)(F)F)cc4)cs3)CC2)cnn1-c1nn2cccc2c(=O)[nH]1` [Q-1139] are 420 nM and 20 nM.
With `Cc1c(C(=O)N2CCn3cccc3C2)cnn1-c1nn2cccc2c(=O)[nH]1` [Q-1925], the IC50 in assay [1] turned out to be 170 nM; in assay [2], 1 nM.
Take `Cc1c(C(=O)N2CC3CCCC(C2)C3C(F)(F)F)cnn1-c1nn2cccc2c(=O)[nH]1` (stereo not drawn) [Q-1123]: the IC50 came to 57 nM in assay [1] and 1 nM in assay [2].
